Holding throughout (assay type): in vivo
Test [1] deals with Anthemis arvensis. Nature of the test: Greenhouse pre-emergence herbicidal activity. The following applies: preemergence, ANTAR, 20 DAT. On the procedure: (§1) The test plants have been seeded, separately for each species, in plastic containers in sandy loamy soil containing 5% of organic matter.
(§2) The containers were irrigated gently to promote germination and growth and subsequently covered with transparent plastic hoods until the plants had rooted.
(§3) The plants have been cultivated due to their individual requirements at 10-25° C. and 20-35° C. The plants were irrigated due to their necessity.
(§4) The racemic mixture (±)-2-exo-(2-M ethylbenzyloxy)-1-methyl-4-isopropyl-7-oxabicyclo[2.2.1]heptane was used as herbicide A and formulated as emulsifiable concentrates with an active ingredient concentration of 50g/I, 100 g/I or 750 g/I respectively.
(§5) Clomazone (herbicide B.3) was used as wettable powder (WP) formulation having an active ingredient concentration of 50%.
(§6) In the following experiments, the herbicidal activity for the individual herbicidal compositions (solo and mixture applications) was assessed 20 days after treatment (DAT).
(§7) The evaluation for the damage on undesired weeds caused by the chemical compositions was carried out using a scale from 0 to 100%, compared to the untreated control plants. Here, 0 means no damage and 100 means complete destruction of the plants.
(§8) E=X+Y−(X·Y/100) where • X=effect in percent using herbicide A at an application rate a; • Y=effect in percent using herbicide B at application rate b; • E=expected effect (in %) of herbicide A+herbicide B at application rates a+b.
(§9) The value E corresponds to the effect (plant damage or injury) which is to be expected if the activity of the individual compounds is additive.

A further test deals with Brassica napus. Nature of the test: Greenhouse pre-emergence herbicidal activity. Particulars: preemergence, BRSNW, 20 DAT. On the procedure: as §1, §2, §3, §4, §5, §6, §7, §8, §9
The test system of a further test is Geranium dissectum. Kind of test: Greenhouse pre-emergence herbicidal activity. Particulars: preemergence, GERDI, 20 DAT. Here is the method: as §1, §2, §3, §4, §5, §6, §7, §8, §9
The test system of test [2] is Lolium multiflorum. Nature of the test: Greenhouse pre-emergence herbicidal activity. Particulars: preemergence, LOLMU, 20 DAT. On the procedure:
as §1, §2, §3, §4, §5, §6, §7, §8, §9

A further test concerns Papaver rhoeas. Nature of the test: Greenhouse pre-emergence herbicidal activity. Particulars: preemergence, PAPRH, 20 DAT. On the procedure: as §1, §2, §3, §4, §5, §6, §7, §8, §9
The next test has as its system Polygonum convolvulus. Kind of test: Greenhouse pre-emergence herbicidal activity. The following applies: preemergence, POLCO, 20 DAT. On the procedure: as §1, §2, §3, §4, §5, §6, §7, §8, §9
The subject of test [3] is Anthemis arvensis. Kind of test: Greenhouse post-emergence herbicidal activity. The following applies: postemergence, ANTAR, 20 DAT. Here is the method: as §1
(§10) For the post emergence treatment, the plants were first grown to the 2 leaf station (GS 12) and applied at GS 12-19 depending on the species. Here, the herbicidal compositions were suspended or emulsified in water as distribution medium and sprayed using finely distributing nozzels.
as §3, §4, §5, §6, §7, §8, §9

The test system of test [4] is Lolium multiflorum. Nature of the test: Greenhouse post-emergence herbicidal activity. The following applies: postemergence, LOLMU, 20 DAT. Here is the method:
as §1, §10, §3, §4, §5, §6, §7, §8, §9

The mark [5] stands for this setting: solo application herbicide A 62.5 g ai/ha.
[6] abbreviates: solo application herbicide A 125 g ai/ha.
[7] abbreviates: solo application herbicide A 250 g ai/ha.
Where [8] appears, read: solo application clomazone 125 g ai/ha.
[9] abbreviates: solo application clomazone 250 g ai/ha.
Where [10] appears, read: solo application clomazone 187.5 g ai/ha.
Where [11] appears, read: solo application clomazone 500 g ai/ha.
The mark [12] stands for this setting: solo application clomazone 750 g ai/ha.

Take `Cc1ccccc1CO[C@@H]1C[C@@]2(C(C)C)CC[C@]1(C)O2` (racemic) [herbicide A, (±)-2-exo-(2-Methylbenzyloxy)-1-methyl-4-isopropyl-7-oxabicyclo[2.2.1]heptane]: the herbicidal activity in the test with Anthemis arvensis [1] (setting [5]) came out at 0%; in the test on Anthemis arvensis [1] (setting [6]), 20%; in the test with Brassica napus (setting [5]), 0%; with Brassica napus (setting [7]), 15%; in the test on Brassica napus (solo application herbicide A 500 g ai/ha) it was 40%; in the test with Geranium dissectum (setting [5]), 70%. The herbicidal activity in the test with Geranium dissectum (setting [6]) came out at 70%; in the test with Geranium dissectum (setting [7]), 70%; in the test with Lolium multiflorum [2] (setting [5]) it was 85%; with Papaver rhoeas (setting [7]), 65%; with Polygonum convolvulus (setting [5]) it was 0%; in the test with Anthemis arvensis [3] (setting [6]) it was 0%. Also, the herbicidal activity came to 40% in the test on Anthemis arvensis [3] (setting [7]) and 35% in the test with Lolium multiflorum [4] (setting [5]).

As for `CC1(C)CON(Cc2ccccc2Cl)C1=O` [clomazone, 2-(2-chlorobenzyl)-4,4-dimethyl-1,2-oxazolidin-3-one], the herbicidal activity in the test with Anthemis arvensis [1] (setting [8]) came to 60%; in the test on Anthemis arvensis [1] (setting [9]) it was 85%; in the test with Brassica napus (setting [8]), 40%; with Brassica napus (setting [10]), 45%; with Brassica napus (setting [11]) it was 75%; with Brassica napus (solo application clomazone 1000 g ai/ha) it was 90%. Also, the herbicidal activity worked out at 30% in the test with Geranium dissectum (setting [8]); 40% in the test with Geranium dissectum (setting [9]); 80% with Geranium dissectum (setting [12]); 85% in the test on Lolium multiflorum [2] (setting [8]); 90% in the test on Papaver rhoeas (setting [11]); 75% with Polygonum convolvulus (setting [8]). The herbicidal activity with Anthemis arvensis [3] (solo application clomazone 375 g ai/ha) is 75%; in the test with Anthemis arvensis [3] (setting [12]) it was 90%; in the test with Lolium multiflorum [4] (setting [8]), 80%; in the test on Lolium multiflorum [4] (setting [10]), 90%.

The record behind these values is patent US11291206B2, “Herbicidal composition comprising cinmethylin and specific pigment synthesis inhibitors” (BASF Agro B.V., priority 2015, dated 2022).
